Counter-ions that a name gives are not always drawn.
Assays:
ISC-enriched organoids [1] = experiment: Secondary (validation) screen, 384-well 2.5-D, ENR+CD 6 days, n=8 wells, vs ENR+CD+DMSO control: basal lysozyme secretion (LYZ.NS); assay type: cell-based, murine; parameters: key to Dose.FC.LYZ.NS: log10 fold change vs median of vehicle control wells
Experimental: (§1) Drugs were tested at a narrowed dose range around each treatment's identified optimal dose from the primary screen (4× below, 2× above and below).
(§2) High-throughput screening.
(§3) Secondary lysozyme secretion assay screen. Confirmatory secondary screening with primary hits was performed using the above 384-well plate method. The screen was conducted with 4-plate replicates with a base media of ENR+CD. Media was supplemented with compound at day 0 and day 3 (n=8 well replicates per dose) at four different doses: two-fold above, two-fold below, and four-fold below the optimal final dose for each respective treatment. Additionally, each plate carried a large number of ENR+DMSO or ENR+CD+DMSO (vehicle) control wells (n=100 for ATP, and n=25 for LYZ.NS and LYZ.S) for robust normalization. ATP, non-stimulated lysozyme activity and CCh-stimulated lysozyme activity was again measured and the collected data was again processed in a custom R-script, per primary screen with slight modification. Values were log10 transformed, and a plate-wise FC was calculated for each well based on the median value of ENR+CD+DMSO (vehicle) control wells to normalize plate to plate variability.

ISC-enriched organoids [2] = experiment: Secondary (validation) screen, 384-well 2.5-D, ENR+CD 6 days, n=8 wells, vs ENR+CD+DMSO control: ATP (CTG); assay type: cell-based, murine; parameters: key to Dose.FC.CTG: log10 fold change vs median of vehicle control wells
Experimental: as §1, §2, §3

ISC-enriched organoids [3] = experiment: Secondary (validation) screen, 384-well 2.5-D, ENR+CD 6 days, n=8 wells, vs ENR+CD+DMSO control: carbachol-induced lysozyme secretion (LYZ.S); assay type: cell-based, murine
Experimental: as §1, §2, §3

ISC-enriched organoids [4] = experiment: Primary screen, 384-well 2.5-D organoid differentiation (ENR+CD, 6 days, Target Selective Inhibitor Library, vs whole-plate median): ATP (CellTiter-Glo 3D, CTG); details: for Z.CTG (standard z score): primary screen; for Dose.FC.CTG: ENR+CD, 6 days, FC vs plate median; for Z.CTG: standard z score of FC
ISC-enriched organoids [5] = experiment: Primary screen, 384-well 2.5-D organoid differentiation (ENR+CD, 6 days): carbachol-induced lysozyme secretion (LYZ.S); assay type: cell-based, murine; details: ENR+CD, 6 days, FC vs plate median
Excerpt: as §2

ISC-enriched organoids [6] = experiment: Primary screen, 384-well 2.5-D organoid differentiation (ENR+CD, 6 days): basal lysozyme secretion (LYZ.NS); assay type: cell-based, murine; details: for Dose.FC.LYZ.NS: ENR+CD, 6 days, FC vs plate median; for Z.LYZ.NS: standard z score of FC
Excerpt: as §2

CCc1c(C(=O)C(N)=O)c2c(OCC(=O)O)cccc2n1Cc1ccccc1 [Varespladib (LY315920), Varespladib]
Z.LYZ.NS (ISC-enriched organoids [1]; Dose 0.02 uM): −0.723
repSSMD.LYZ.NS (ISC-enriched organoids [1]; Dose 0.02 uM): −0.763
Z.LYZ.NS (ISC-enriched organoids [1]; Dose 0.04 uM): 0.123
repSSMD.LYZ.NS (ISC-enriched organoids [1]; Dose 0.04 uM): 0.213
Z.LYZ.NS (ISC-enriched organoids [1]; dose 0.08 uM): 0.718
repSSMD.LYZ.NS (ISC-enriched organoids [1]; dose 0.08 uM): 1.251
Z.CTG (ISC-enriched organoids [2]; Dose 0.02 uM): 0.244
repSSMD.CTG (ISC-enriched organoids [2]; Dose 0.02 uM): 0.187
Z.CTG (ISC-enriched organoids [2]; Dose 0.04 uM): 1.019
repSSMD.CTG (ISC-enriched organoids [2]; Dose 0.04 uM): 0.518
Z.CTG (ISC-enriched organoids [2]; dose 0.08 uM): 1.862
repSSMD.CTG (ISC-enriched organoids [2]; dose 0.08 uM): 1.114
Z.LYZ.S (ISC-enriched organoids [3]; Dose 0.02 uM): −1.057
repSSMD.LYZ.S (ISC-enriched organoids [3]; Dose 0.02 uM): −1.652
Z.LYZ.S (ISC-enriched organoids [3]; Dose 0.04 uM): −0.339
repSSMD.LYZ.S (ISC-enriched organoids [3]; Dose 0.04 uM): −0.641
Z.LYZ.S (ISC-enriched organoids [3]; dose 0.08 uM): 0.497
repSSMD.LYZ.S (ISC-enriched organoids [3]; dose 0.08 uM): 0.838

C[C@H](NCc1ccc(OCc2cccc(F)c2)cc1)C(N)=O [Safinamide Mesylate]
Z.CTG (standard z score) (ISC-enriched organoids [4]; Dose 0.08 uM): 0.633
Z.CTG (standard z score) (ISC-enriched organoids [4]; Dose 0.40 uM): 0.575
Z.CTG (standard z score) (ISC-enriched organoids [4]; Dose 2.00 uM): 0.627
Z.CTG (standard z score) (ISC-enriched organoids [4]; Dose 10.00 uM): 0.883
Z.LYZ.NS (ISC-enriched organoids [1]; Dose 0.50 uM): −1.244
repSSMD.LYZ.NS (ISC-enriched organoids [1]; Dose 0.50 uM): −1.484
Z.LYZ.NS (ISC-enriched organoids [1]; Dose 1.00 uM): −1.847
repSSMD.LYZ.NS (ISC-enriched organoids [1]; Dose 1.00 uM): −2.985
Z.LYZ.NS (ISC-enriched organoids [1]; Dose 4.00 uM): −0.272
repSSMD.LYZ.NS (ISC-enriched organoids [1]; Dose 4.00 uM): −0.431
Z.LYZ.NS (ISC-enriched organoids [1]; dose 2.00 uM): −0.368
repSSMD.LYZ.NS (ISC-enriched organoids [1]; dose 2.00 uM): −0.556
Z.CTG (ISC-enriched organoids [2]; Dose 0.50 uM): −0.127
repSSMD.CTG (ISC-enriched organoids [2]; Dose 0.50 uM): −0.118
Z.CTG (ISC-enriched organoids [2]; Dose 1.00 uM): −0.743
repSSMD.CTG (ISC-enriched organoids [2]; Dose 1.00 uM): −0.547
Z.CTG (ISC-enriched organoids [2]; Dose 4.00 uM): −0.022
repSSMD.CTG (ISC-enriched organoids [2]; Dose 4.00 uM): −0.013
Z.CTG (ISC-enriched organoids [2]; dose 2.00 uM): −0.098
repSSMD.CTG (ISC-enriched organoids [2]; dose 2.00 uM): −0.060
Z.LYZ.S (ISC-enriched organoids [3]; Dose 0.50 uM): −1.637
repSSMD.LYZ.S (ISC-enriched organoids [3]; Dose 0.50 uM): −2.413
Z.LYZ.S (ISC-enriched organoids [3]; Dose 1.00 uM): −2.259
repSSMD.LYZ.S (ISC-enriched organoids [3]; Dose 1.00 uM): −3.571
Z.LYZ.S (ISC-enriched organoids [3]; Dose 4.00 uM): −0.658
repSSMD.LYZ.S (ISC-enriched organoids [3]; Dose 4.00 uM): −0.942
Z.LYZ.S (ISC-enriched organoids [3]; dose 2.00 uM): −0.757
repSSMD.LYZ.S (ISC-enriched organoids [3]; dose 2.00 uM): −1.243

NC1(Cc2ccc(Cl)cc2)CCN(c2ncnc3[nH]ccc23)CC1 [CCT128930, reference compound]
Dose.FC.CTG (ISC-enriched organoids [4]; Dose 0.08 uM): 0.095 log 2 fold change
Z.CTG (ISC-enriched organoids [4]; Dose 0.08 uM): 0.228
Dose.FC.CTG (ISC-enriched organoids [4]; Dose 0.40 uM): −0.025 log 2 fold change
Z.CTG (ISC-enriched organoids [4]; Dose 0.40 uM): −0.060
Dose.FC.CTG (ISC-enriched organoids [4]; Dose 2.00 uM): 0.127 log 2 fold change
Z.CTG (ISC-enriched organoids [4]; Dose 2.00 uM): 0.304
Dose.FC.CTG (ISC-enriched organoids [4]; Dose 10.00 uM): −0.175 log 2 fold change
Z.CTG (ISC-enriched organoids [4]; Dose 10.00 uM): −0.418
Dose.FC.LYZ.NS (ISC-enriched organoids [1]; Dose 0.02 uM): −0.241
Z.LYZ.NS (ISC-enriched organoids [1]; Dose 0.02 uM): −1.927
repSSMD.LYZ.NS (ISC-enriched organoids [1]; Dose 0.02 uM): −2.551
Dose.FC.LYZ.NS (ISC-enriched organoids [1]; Dose 0.04 uM): −0.020
Z.LYZ.NS (ISC-enriched organoids [1]; Dose 0.04 uM): −0.164
repSSMD.LYZ.NS (ISC-enriched organoids [1]; Dose 0.04 uM): −0.204
Dose.FC.LYZ.NS (ISC-enriched organoids [1]; Dose […]): −0.160
Dose.FC.LYZ.NS (ISC-enriched organoids [1]; dose 0.08 uM): 0.031
Z.LYZ.NS (ISC-enriched organoids [1]; dose 0.08 uM): 0.248
repSSMD.LYZ.NS (ISC-enriched organoids [1]; dose 0.08 uM): 0.366
Dose.FC.LYZ.S (ISC-enriched organoids [5]; Dose 0.08 uM): 0.266 log 2 fold change
Dose.FC.LYZ.S (ISC-enriched organoids [5]; Dose 0.40 uM): −0.007 log 2 fold change
Dose.FC.LYZ.S (ISC-enriched organoids [5]; Dose 2.00 uM): 0.053 log 2 fold change
Dose.FC.LYZ.S (ISC-enriched organoids [5]; Dose 10.00 uM): −0.201 log 2 fold change
Dose.FC.CTG (ISC-enriched organoids [2]; Dose 0.02 uM): −0.117
Z.CTG (ISC-enriched organoids [2]; Dose 0.02 uM): −1.054
repSSMD.CTG (ISC-enriched organoids [2]; Dose 0.02 uM): −0.787
Dose.FC.CTG (ISC-enriched organoids [2]; Dose 0.04 uM): 0.122
Z.CTG (ISC-enriched organoids [2]; Dose 0.04 uM): 1.101
repSSMD.CTG (ISC-enriched organoids [2]; Dose 0.04 uM): 0.922
Dose.FC.CTG (ISC-enriched organoids [2]; Dose […]): −0.088
Dose.FC.CTG (ISC-enriched organoids [2]; dose 0.08 uM): 0.166
Z.CTG (ISC-enriched organoids [2]; dose 0.08 uM): 1.494
repSSMD.CTG (ISC-enriched organoids [2]; dose 0.08 uM): 1.047
Z.LYZ.S (ISC-enriched organoids [3]; Dose 0.02 uM): −2.445
log10 fold change in stimulated lysozyme secretion vs vehicle control (ISC-enriched organoids [3]; Dose 0.02 uM): −0.319
repSSMD.LYZ.S (ISC-enriched organoids [3]; Dose 0.02 uM): −3.825
Z.LYZ.S (ISC-enriched organoids [3]; Dose 0.04 uM): −0.108
log10 fold change in stimulated lysozyme secretion vs vehicle control (ISC-enriched organoids [3]; Dose 0.04 uM): −0.014
repSSMD.LYZ.S (ISC-enriched organoids [3]; Dose 0.04 uM): −0.157
log10 fold change in stimulated lysozyme secretion vs vehicle control (ISC-enriched organoids [3]; Dose […]): −0.217
Z.LYZ.S (ISC-enriched organoids [3]; dose 0.08 uM): 0.041
log10 fold change in stimulated lysozyme secretion vs vehicle control (ISC-enriched organoids [3]; dose 0.08 uM): 0.005
repSSMD.LYZ.S (ISC-enriched organoids [3]; dose 0.08 uM): 0.069
Dose.FC.LYZ.NS (ISC-enriched organoids [6]; Dose 0.08 uM): 0.323 log 2 fold change
Z.LYZ.NS (ISC-enriched organoids [6]; Dose 0.08 uM): 2.811
Dose.FC.LYZ.NS (ISC-enriched organoids [6]; Dose 0.40 uM): −0.018 log 2 fold change
Z.LYZ.NS (ISC-enriched organoids [6]; Dose 0.40 uM): −0.154
Dose.FC.LYZ.NS (ISC-enriched organoids [6]; Dose 2.00 uM): 0.073 log 2 fold change
Z.LYZ.NS (ISC-enriched organoids [6]; Dose 2.00 uM): 0.633
Dose.FC.LYZ.NS (ISC-enriched organoids [6]; Dose 10.00 uM): −0.150 log 2 fold change
Z.LYZ.NS (ISC-enriched organoids [6]; Dose 10.00 uM): −1.307

CC(C)(C)NC(=O)[C@H]1CC[C@H]2[C@@H]3CC[C@H]4NC(=O)C=C[C@]4(C)[C@H]3CC[C@]12C [Finasteride]
Z.CTG (ISC-enriched organoids [4]; Dose 0.08 uM): 0.360
Z.CTG (ISC-enriched organoids [4]; Dose 0.40 uM): −0.092
Z.CTG (ISC-enriched organoids [4]; Dose 2.00 uM): 0.174
Z.CTG (ISC-enriched organoids [4]; Dose 10.00 uM): −0.097
Z.LYZ.NS (ISC-enriched organoids [1]; Dose 0.02 uM): 0.445
repSSMD.LYZ.NS (ISC-enriched organoids [1]; Dose 0.02 uM): 0.362
Z.LYZ.NS (ISC-enriched organoids [1]; Dose 0.04 uM): −1.510
repSSMD.LYZ.NS (ISC-enriched organoids [1]; Dose 0.04 uM): −2.570
Z.LYZ.NS (ISC-enriched organoids [1]; dose 0.08 uM): −1.522
repSSMD.LYZ.NS (ISC-enriched organoids [1]; dose 0.08 uM): −2.177
Z.CTG (ISC-enriched organoids [2]; Dose 0.02 uM): 0.596
repSSMD.CTG (ISC-enriched organoids [2]; Dose 0.02 uM): 0.358
Z.CTG (ISC-enriched organoids [2]; Dose 0.04 uM): −1.623
repSSMD.CTG (ISC-enriched organoids [2]; Dose 0.04 uM): −0.994
Z.CTG (ISC-enriched organoids [2]; dose 0.08 uM): −0.099
repSSMD.CTG (ISC-enriched organoids [2]; dose 0.08 uM): −0.083
Z.LYZ.S (ISC-enriched organoids [3]; Dose 0.02 uM): −0.147
repSSMD.LYZ.S (ISC-enriched organoids [3]; Dose 0.02 uM): −0.197
Z.LYZ.S (ISC-enriched organoids [3]; Dose 0.04 uM): −1.996
repSSMD.LYZ.S (ISC-enriched organoids [3]; Dose 0.04 uM): −3.825
Z.LYZ.S (ISC-enriched organoids [3]; dose 0.08 uM): −1.859
repSSMD.LYZ.S (ISC-enriched organoids [3]; dose 0.08 uM): −2.574

Source: patent US20230398130A1, “METHODS AND COMPOSITIONS FOR DIFFERENTIATING STEM CELLS” (Massachusetts Institute of Technology, priority 2020, published 2023)
